According to patent US20230108049A1, “ORAL FAST-DISPERSING DOSAGE FORM OF RIMEGEPANT” (BIOHAVEN PHARMACEUTICAL HOLDING COMPANY LTD., priority 2020, published 2023):
Entries after “also recorded” stand apart in the source; their conditions may differ. Like-named read-outs stand apart in the source and are kept apart here.

Assays:
[1] = test system: CYP2C9; assay: Pharmacogenomics: pharmacokinetics by CYP2C9 genotype; format: in vivo, human; settings: CYP2C9 intermediate metabolizers (n=43) compared to normal metabolizers (N=72)
Source text: CYP2C9 activity is reduced in individuals with genetic variants such as the CYP2C9*2 and CYP2C9*3 alleles. Rimegepant Cmax and AUC0-inf were similar in CYP2C9 intermediate metabolizers (i.e., *1/*2, *2/*2, *1/*3, n=43) as compared to normal metabolizers (i.e., *1/*1, N=72). Adequate PK data are not available from CYP2C9 poor metabolizers (i.e., *2/*3).

[2] = target: MATE2-K (Homo sapiens, UniProt Q86VL8); assay: In vitro transporter inhibition; format: in vitro ADME; settings: at clinically relevant concentrations
Sequence of MATE2-K (Q86VL8 1-566 isoform Q86VL8-3): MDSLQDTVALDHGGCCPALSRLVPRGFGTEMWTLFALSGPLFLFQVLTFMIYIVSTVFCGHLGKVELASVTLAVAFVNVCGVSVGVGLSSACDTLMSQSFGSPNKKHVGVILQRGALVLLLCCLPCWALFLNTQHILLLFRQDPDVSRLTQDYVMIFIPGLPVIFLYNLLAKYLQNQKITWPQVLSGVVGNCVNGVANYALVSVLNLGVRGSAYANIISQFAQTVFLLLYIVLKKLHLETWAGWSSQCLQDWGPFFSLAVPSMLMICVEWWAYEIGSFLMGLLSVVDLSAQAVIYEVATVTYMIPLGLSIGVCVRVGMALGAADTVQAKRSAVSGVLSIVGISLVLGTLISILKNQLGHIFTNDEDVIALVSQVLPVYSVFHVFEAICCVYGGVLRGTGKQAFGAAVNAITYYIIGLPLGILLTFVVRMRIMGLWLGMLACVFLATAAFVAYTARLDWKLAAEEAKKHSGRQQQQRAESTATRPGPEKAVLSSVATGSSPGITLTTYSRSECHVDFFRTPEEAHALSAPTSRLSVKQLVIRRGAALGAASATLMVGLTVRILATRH

[3] = test system: rats; assay: Carcinogenesis study, oral, 91-100 weeks, rats; format: in vivo, rat
[4] = Pharmacokinetic interactions with other drugs (oral contraceptives, midazolam, sumatriptan); format: in vivo, human; settings: with oral contraceptives (norelgestromin, ethinyl estradiol), midazolam, or sumatriptan
[5] = target: T1, CYP2C9 (Homo sapiens, UniProt P11712); assay: In vitro enzyme inhibition; format: in vitro ADME; settings: at clinically relevant concentrations
T1 sequence (P11712 whole entry): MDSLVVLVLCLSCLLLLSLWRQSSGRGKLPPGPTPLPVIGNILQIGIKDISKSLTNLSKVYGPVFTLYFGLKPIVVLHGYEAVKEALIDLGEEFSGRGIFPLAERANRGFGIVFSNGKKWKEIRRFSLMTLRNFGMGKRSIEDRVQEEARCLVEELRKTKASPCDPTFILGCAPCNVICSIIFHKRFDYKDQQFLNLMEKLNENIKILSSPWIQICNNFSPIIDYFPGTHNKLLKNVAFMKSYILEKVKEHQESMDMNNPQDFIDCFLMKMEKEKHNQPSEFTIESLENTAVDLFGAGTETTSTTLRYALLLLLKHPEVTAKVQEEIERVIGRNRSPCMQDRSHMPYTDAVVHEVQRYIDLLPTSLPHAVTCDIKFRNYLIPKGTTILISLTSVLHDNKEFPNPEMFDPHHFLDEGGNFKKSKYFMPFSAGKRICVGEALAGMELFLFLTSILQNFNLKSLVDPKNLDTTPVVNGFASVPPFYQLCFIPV
Source text: (§1) Rimegepant is a substrate of CYP3A4 and CYP2C9 [see In Vivo Studies].

[6] = target: CYP2B6 (Homo sapiens, UniProt P20813); assay: In vitro enzyme inhibition; format: in vitro ADME; settings: at clinically relevant concentrations
Source text: as §1

[7] = target: CYP1A2 (Homo sapiens, UniProt P05177); assay: In vitro enzyme inhibition; format: in vitro ADME; settings: at clinically relevant concentrations
Sequence of CYP1A2 (P05177 whole entry): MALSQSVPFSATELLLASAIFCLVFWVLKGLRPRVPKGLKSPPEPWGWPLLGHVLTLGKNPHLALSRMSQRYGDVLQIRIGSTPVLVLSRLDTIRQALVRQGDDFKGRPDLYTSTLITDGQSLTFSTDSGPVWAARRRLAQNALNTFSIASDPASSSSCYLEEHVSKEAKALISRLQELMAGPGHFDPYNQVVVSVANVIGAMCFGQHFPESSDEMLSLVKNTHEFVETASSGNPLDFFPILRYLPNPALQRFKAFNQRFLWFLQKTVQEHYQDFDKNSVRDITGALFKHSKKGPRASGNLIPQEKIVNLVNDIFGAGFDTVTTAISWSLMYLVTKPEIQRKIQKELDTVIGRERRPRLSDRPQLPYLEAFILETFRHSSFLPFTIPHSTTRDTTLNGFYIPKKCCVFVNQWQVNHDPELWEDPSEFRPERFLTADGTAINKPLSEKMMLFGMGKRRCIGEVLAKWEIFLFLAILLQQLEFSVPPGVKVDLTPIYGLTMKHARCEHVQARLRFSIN
Source text: as §1

[8] = target: CYP2D6 (Homo sapiens, UniProt P10635); assay: In vitro enzyme inhibition; format: in vitro ADME; settings: at clinically relevant concentrations
Sequence of CYP2D6 (P10635 whole entry): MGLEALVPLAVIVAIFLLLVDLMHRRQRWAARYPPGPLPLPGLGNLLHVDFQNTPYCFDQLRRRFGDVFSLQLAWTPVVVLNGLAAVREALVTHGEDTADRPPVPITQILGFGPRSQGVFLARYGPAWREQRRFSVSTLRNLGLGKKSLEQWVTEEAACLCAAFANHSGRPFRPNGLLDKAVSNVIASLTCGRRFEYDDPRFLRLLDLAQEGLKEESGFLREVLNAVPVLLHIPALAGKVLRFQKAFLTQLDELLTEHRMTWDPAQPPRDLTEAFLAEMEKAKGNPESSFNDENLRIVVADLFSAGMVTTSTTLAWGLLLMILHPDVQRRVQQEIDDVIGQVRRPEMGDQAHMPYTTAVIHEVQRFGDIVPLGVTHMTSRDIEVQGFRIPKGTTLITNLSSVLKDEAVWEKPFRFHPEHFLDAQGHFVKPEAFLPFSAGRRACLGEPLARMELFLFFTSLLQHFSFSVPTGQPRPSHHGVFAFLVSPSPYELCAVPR
Source text: as §1

[9] = target: CYP2C19 (Homo sapiens, UniProt P33261); assay: In vitro enzyme inhibition; format: in vitro ADME; settings: at clinically relevant concentrations
Sequence of CYP2C19 (P33261 whole entry): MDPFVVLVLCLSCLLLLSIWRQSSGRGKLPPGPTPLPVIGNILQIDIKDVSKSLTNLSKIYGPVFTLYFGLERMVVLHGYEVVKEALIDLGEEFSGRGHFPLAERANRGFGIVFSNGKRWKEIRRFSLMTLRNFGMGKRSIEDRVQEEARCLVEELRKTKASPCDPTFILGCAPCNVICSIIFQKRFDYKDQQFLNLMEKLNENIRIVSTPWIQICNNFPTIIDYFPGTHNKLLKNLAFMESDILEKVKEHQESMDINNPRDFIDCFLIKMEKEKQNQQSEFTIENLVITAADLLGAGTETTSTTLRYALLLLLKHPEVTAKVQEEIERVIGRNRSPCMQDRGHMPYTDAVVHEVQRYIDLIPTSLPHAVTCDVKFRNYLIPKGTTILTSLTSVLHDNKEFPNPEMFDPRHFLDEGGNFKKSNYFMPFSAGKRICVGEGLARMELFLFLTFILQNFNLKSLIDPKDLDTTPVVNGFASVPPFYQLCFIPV
Source text: as §1

[10] = target: UGT1A1 (Homo sapiens, UniProt P22309); assay: In vitro enzyme inhibition; format: in vitro ADME; settings: at clinically relevant concentrations
Source text: as §1

[11] = target: T2, CYP3A4 (Homo sapiens, UniProt P08684); assay: In vitro enzyme inhibition; format: in vitro ADME
T2 sequence (P08684 whole entry): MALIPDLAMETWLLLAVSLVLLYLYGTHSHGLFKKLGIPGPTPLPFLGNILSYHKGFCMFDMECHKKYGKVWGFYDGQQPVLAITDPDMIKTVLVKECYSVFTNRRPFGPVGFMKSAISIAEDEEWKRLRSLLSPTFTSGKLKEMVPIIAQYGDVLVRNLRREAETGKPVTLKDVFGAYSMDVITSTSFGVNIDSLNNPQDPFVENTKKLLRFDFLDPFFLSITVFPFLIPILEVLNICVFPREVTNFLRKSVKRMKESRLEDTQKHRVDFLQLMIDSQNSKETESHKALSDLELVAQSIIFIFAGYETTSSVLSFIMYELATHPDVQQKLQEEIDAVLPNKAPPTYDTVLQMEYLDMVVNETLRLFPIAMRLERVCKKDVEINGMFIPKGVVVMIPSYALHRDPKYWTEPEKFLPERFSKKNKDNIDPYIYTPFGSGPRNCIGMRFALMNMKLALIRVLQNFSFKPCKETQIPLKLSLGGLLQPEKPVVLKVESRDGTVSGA
Source text: as §1

[12] = target: MATE1 (Homo sapiens, UniProt Q96FL8); assay: In vitro transporter inhibition; format: in vitro ADME
Source text: (§2) Rimegepant is an inhibitor of OATP1B3, OCT2, and MATE1. No clinical drug interactions are expected for NURTEC ODT with these transporters at clinically relevant concentrations.

[13] = target: OAT1 (Homo sapiens, UniProt Q4U2R8); assay: In vitro transporter inhibition; format: in vitro ADME; settings: at clinically relevant concentrations
Source text: as §2

[14] = target: OAT3 (Homo sapiens, UniProt Q8TCC7); assay: In vitro transporter inhibition; format: in vitro ADME
Sequence of OAT3 (Q8TCC7 whole entry): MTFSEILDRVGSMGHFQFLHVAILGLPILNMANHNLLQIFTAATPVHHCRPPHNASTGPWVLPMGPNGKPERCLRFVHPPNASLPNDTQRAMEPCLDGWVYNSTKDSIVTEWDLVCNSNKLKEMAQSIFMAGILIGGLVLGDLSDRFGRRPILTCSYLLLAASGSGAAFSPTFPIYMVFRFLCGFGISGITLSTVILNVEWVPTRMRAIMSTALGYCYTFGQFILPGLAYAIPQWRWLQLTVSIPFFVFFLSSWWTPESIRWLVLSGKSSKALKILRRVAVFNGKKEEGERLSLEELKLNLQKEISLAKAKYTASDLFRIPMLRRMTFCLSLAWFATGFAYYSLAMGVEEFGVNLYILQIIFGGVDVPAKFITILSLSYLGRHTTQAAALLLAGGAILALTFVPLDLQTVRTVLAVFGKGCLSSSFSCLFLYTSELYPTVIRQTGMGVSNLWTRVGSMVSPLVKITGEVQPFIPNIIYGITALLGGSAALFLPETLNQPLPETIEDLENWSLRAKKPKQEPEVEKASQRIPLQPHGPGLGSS
Source text: as §2

[15] = target: OATP1B3 (Homo sapiens, UniProt Q9NPD5); assay: In vitro transporter inhibition; format: in vitro ADME
Sequence of OATP1B3 (Q9NPD5 whole entry): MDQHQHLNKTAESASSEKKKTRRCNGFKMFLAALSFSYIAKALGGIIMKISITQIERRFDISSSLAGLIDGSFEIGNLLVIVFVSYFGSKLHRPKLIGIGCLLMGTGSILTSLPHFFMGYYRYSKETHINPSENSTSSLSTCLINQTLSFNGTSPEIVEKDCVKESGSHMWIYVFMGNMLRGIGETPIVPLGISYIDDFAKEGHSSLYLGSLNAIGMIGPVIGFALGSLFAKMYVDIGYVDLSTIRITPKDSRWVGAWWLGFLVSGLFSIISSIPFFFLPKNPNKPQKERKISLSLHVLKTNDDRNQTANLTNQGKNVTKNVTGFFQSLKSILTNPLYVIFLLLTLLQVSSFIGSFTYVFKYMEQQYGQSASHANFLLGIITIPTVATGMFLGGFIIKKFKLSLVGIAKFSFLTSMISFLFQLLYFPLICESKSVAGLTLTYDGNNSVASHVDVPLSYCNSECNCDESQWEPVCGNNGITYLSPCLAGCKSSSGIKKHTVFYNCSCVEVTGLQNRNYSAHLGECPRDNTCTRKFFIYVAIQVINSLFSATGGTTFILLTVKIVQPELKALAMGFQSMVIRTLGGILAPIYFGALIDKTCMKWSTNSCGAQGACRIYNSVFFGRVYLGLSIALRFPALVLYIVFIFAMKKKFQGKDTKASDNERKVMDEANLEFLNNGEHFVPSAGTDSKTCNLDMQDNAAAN
Source text: as §2

[16] = target: OCT2 (Homo sapiens, UniProt O15244); assay: In vitro transporter inhibition; format: in vitro ADME
Sequence of OCT2 (O15244 whole entry): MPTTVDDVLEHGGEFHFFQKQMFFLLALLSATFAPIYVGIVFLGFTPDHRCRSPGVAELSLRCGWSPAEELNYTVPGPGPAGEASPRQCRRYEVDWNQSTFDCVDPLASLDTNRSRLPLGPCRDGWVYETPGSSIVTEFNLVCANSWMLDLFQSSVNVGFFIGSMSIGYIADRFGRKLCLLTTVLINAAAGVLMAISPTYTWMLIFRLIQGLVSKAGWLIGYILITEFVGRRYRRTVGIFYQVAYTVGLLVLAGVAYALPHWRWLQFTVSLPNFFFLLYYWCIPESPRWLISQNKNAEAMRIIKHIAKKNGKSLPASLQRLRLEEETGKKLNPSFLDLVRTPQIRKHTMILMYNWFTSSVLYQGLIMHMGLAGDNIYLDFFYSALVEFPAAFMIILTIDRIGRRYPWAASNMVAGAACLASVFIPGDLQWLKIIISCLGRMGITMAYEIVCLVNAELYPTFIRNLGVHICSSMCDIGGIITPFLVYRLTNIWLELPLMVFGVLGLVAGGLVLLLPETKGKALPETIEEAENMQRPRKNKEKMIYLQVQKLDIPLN
Source text: as §2

[17] = target: T1, CYP2C9; assay: In vitro enzyme study: substrate / metabolism; format: in vitro ADME; settings: listed as Rimegepant
Source text: as §1

[18] = target: T2, CYP3A4; assay: In vitro enzyme study: substrate / metabolism; format: in vitro ADME
Source text: as §1

[19] = target: P-gp (Homo sapiens, UniProt P08183); assay: In vitro transporter inhibition; format: in vitro ADME; settings: at clinically relevant concentrations
[20] = Excretion after oral [14C]-rimegepant; format: in vivo, human; settings: oral [14C]-rimegepant, healthy male subjects
Source text: Following oral administration of [^14C]-rimegepant to healthy male subjects, 78% of the total radioactivity was recovered in feces and 24% in urine. Unchanged rimegepant is the major single component in excreted feces (42%) and urine (51%).

[21] = target: T2, CYP3A4; assay: Expected interactions with moderate or weak CYP3A4 inhibitors and inducers; format: in vivo; parameters: endogenous in cells; host or cells: in vivo, endogenous enzyme of the study subjects
Procedure: The concomitant administration of rimegepant with a moderate inhibitor of CYP3A4 may increase rimegepant exposures (AUC) by less than 2-fold [see Drug Interactions].
(§3) No dedicated drug interaction study was conducted to assess the effect of concomitant administration of a moderate or weak inducer of CYP3A4 on the pharmacokinetics of rimegepant.

[22] = target: T2, CYP3A4; assay: Dedicated drug interaction study with rifampin (strong CYP3A4 inducer); format: in vivo; parameters: endogenous in cells; host or cells: in vivo, endogenous enzyme of the study subjects; settings: 75 mg single dose with rifampin at steady state
Procedure: as §3

[23] = test system: pregnant rats; assay: Embryofetal development study, oral administration during organogenesis, rats; format: in vivo, rat
Procedure: Plasma exposures (AUC) at the no-effect dose (60 mg/kg/day) for adverse effects on embryofetal development were approximately 45 times that in humans at the maximum recommended human dose (MRHD) of 75 mg/day.

[24] = test system: Tg.rasH2 mice; assay: Carcinogenesis study, oral, 26 weeks, Tg.rasH2 mice; format: in vivo, mouse; settings: oral 0, 10, 100, or 300 mg/k/day for 26 weeks
[25] = Pharmacokinetics in other specific populations; format: in vivo, human; settings: based on age, sex, race/ethnicity, body weight, or CYP2C9 genotype
[26] = target: BCRP (Homo sapiens, UniProt Q9UNQ0); assay: In vitro transporter inhibition; format: in vitro ADME; settings: at clinically relevant concentrations

With `N[C@@H]1c2cccnc2[C@H](OC(=O)N2CCC(n3c(=O)[nH]c4ncccc43)CC2)CC[C@H]1c1cccc(F)c1F` [rimegepant, (5S,6S,9R)-5-amino-6-(2,3-difluorophenyl)-6,7,8,9-tetrahydro-5H-cyclohepta[b]pyridin-9-yl 4-(2-oxo-2,3-dihydro-1H-imidazo[4,5-b]pyridin-1-yl)-1-piperidinecarboxylate] the “Cmax and AUC0-inf” value [1] was “similar”, the “inhibition of MATE2-K” value [2] was “not an inhibitor” and the “plasma exposure (AUC) relative to humans at the MRHD of 75 mg/day” value ([3]; highest dose tested (45 mg/kg/day)) was “approximately 30 times”. The drug-induced tumors ([3]; oral 0, 5, 20, or 45 mg/kg/day for 91-100 weeks) was “no evidence of drug-induced tumors”, the pharmacokinetic interactions [4] was “No significant pharmacokinetic interactions” and the “inhibition of CYP2C9” value [5] was “not an inhibitor”. For the same compound, the “inhibition of CYP2B6” value [6] was “not an inhibitor”, the “inhibition of CYP1A2” value [7] was “not an inhibitor” and the “inhibition of CYP2D6” value [8] was “not an inhibitor”. For the same compound, the “inhibition of CYP2C19” value [9] was “not an inhibitor”, the “inhibition of UGT1A1” value [10] was “not an inhibitor” and the “inhibition of CYP3A4” value [11] was “weak inhibitor of CYP3A4 with time-dependent inhibition”. For the same compound, the “inhibition of MATE1” value [12] was “inhibitor”, the “inhibition of OAT1” value [13] was “not an inhibitor” and the “inhibition of OAT3” value [14] was “weak inhibitor”. For the same compound, the “inhibition of OATP1B3” value [15] was “inhibitor”, the “inhibition of OCT2” value [16] was “inhibitor” and the “substrate of / metabolized by CYP2C9” value [17] was “substrate”. The “substrate of / metabolized by CYP3A4” value [18] was “moderately sensitive substrate”, the “substrate of / metabolized by CYP3A4” value ([18]; listed as Rimegepant) was “primarily metabolized; also recorded: substrate” and the “inhibition of P-gp” value [19] was “not an inhibitor”. For the same compound, the “unchanged rimegepant in excreted feces” value [20] was 42%, the “unchanged rimegepant in excreted urine” value [20] was 51% and the “increase of rimegepant exposures (AUC)” value ([21]; with a moderate inhibitor of CYP3A4, stated as 'may increase') was “less than 2 fold”. For the same compound, the “impact on rimegepant exposures” value ([21]; with a weak inhibitor of CYP3A4, no dedicated study conducted) was “not expected to have a clinically significant impact”, the “effect on rimegepant exposure” value ([21]; with moderate inducers of CYP3A4, no dedicated study conducted) was “significant reduction in rimegepant exposure” and the “decrease of rimegepant AUC” value [22] was 80%. The “decrease of rimegepant Cmax” value [22] was 64%, the “plasma exposure (AUC) relative to humans at the MRHD of 75 mg/day” value ([23]; at the no-effect dose (60 mg/kg/day)) was “approximately 45 times” and the “effects on embryofetal development” value ([23]; highest dose tested (300 mg/kg/day), oral, associated with maternal toxicity) was “decreased fetal body weight and an increased incidence of fetal variations”. The “no-effect dose for adverse effects on embryofetal development” value ([23]; oral, pregnant rats) was 60 mg/kg/day, the drug-induced tumors [24] was “no evidence of drug-induced tumors” and the differences in pharmacokinetics [25] was “No clinically significant differences”. For the same compound, the “inhibition of BCRP” value [26] was “not an inhibitor”.
